Data set [1] concerns small intestinal transit. The data set is described as follows: Small Intestinal Transit Rodent Model (charcoal meal). The note with it: for Small intestinal transit, Mean (% of total length): 15 min test period. The format is in vivo, rat. The method, then:
Following an overnight fast, rats were brought to the laboratory in their home cages and received an i.p. injection of one of the following: […] Control rats received no treatment. The treated rats were placed back in the home cages and after 30 min, were fed a 2 mL charcoal meal via an oral gavage. Small intestinal transit was measured following 15 min test-period. Each rat was placed briefly in a glass chamber with IsoFlo for anesthesia and sacrificed. The stomach and the small intestine were removed and the total length of the small intestine was measured. Transit was then measured as the distance that the charcoal meal had traveled along the small intestine and expressed as % of the total length. Animals were randomly assigned to experimental groups and experiments were performed as illustrated in Table 11. Small intestinal transit in rats was investigated by the passage of a charcoal meal along the small intestine during a defined time period (15-min). The animals were deprived of food for 12-16 hrs prior to the experiments. Rats were given a charcoal meal (a mixture of charcoal, gum arabic, and distilled water) as a 2 mL oral gavage and were sacrificed after a 15-min test period. The distance traveled by the charcoal meal was quantified as a percent of the small intestinal length, using the following equation: Transit (%)=cm traveled by meal/cm total small intestinal length×100 […]

The subject of data set [2] is acetic acid-induced colonic hypersensitivity. The data set is described as follows: Visceromotor response to colorectal distension in acetic acid-sensitized rats. Here is the method: The visceromotor behavioral response to colorectal distension was measured by counting the number of abdominal contractions recorded by a strain gauge sutured onto the abdominal musculature as described in Gunter et al., Physiol. […] A 5 cm latex balloon catheter inserted via the anal canal into the colon was used for colorectal distensions. Constant pressure tonic distensions were performed in a graded manner (15, 30 or 60 mmHg) and were maintained for a period of 10 min and the numbers of abdominal muscle contractions were recorded to measure the level of colonic sensation. A 10 min recovery was allowed between distensions.
J. Physiol. […] In the present study, a low concentration of acetic acid (1.5 ml, 0.6%) was administered intracolonically to sensitize the colon without causing histological damage to the colonic mucosa as described in previous studies (Gunter et al., supra).
Injection volume was 0.2 mL using 100% propylene glycol as the vehicle. Three consecutive colorectal distensions at 15, 30 or 60 mmHg applied at 10-min intervals were recorded. Visceromotor responses were evaluated as the number of abdominal muscle contractions recorded during the 10-min periods of colorectal distension.
Adult male rats were used in the study. […] Specifically, rats were anesthetized with Isoflurane (2%) and were instrumented with a strain gauge force transducer for recording of abdominal muscle contractions. A latex balloon and catheter were inserted 11 cm into the colon. The animals were allowed a 30-min period to completely recover from the anesthesia and were then subjected to intracolonic infusion of acetic acid (1.5 mL, 0.6%). An additional 30-min period was allowed for sensitization of the colon. […] The protocol for colorectal distension was initiated 30-min post drug administration. After a basal reading of the number of abdominal contractions with the balloon inserted but not distended, three consecutive 10-min lasting colorectal distensions at 15, 30, and 60 mmHg were applied at 10-min intervals. Colorectal sensitivity was evaluated by counting the number of reflex abdominal contractions (i.e. the visceromotor response) observed within each distension period.
The visceromotor behavioral response to colorectal distension was measured by counting the number of abdominal contractions recorded by a strain gauge sutured onto the abdominal musculature as previously described Gunter et al., referenced above. Colorectal distensions were carried out utilizing a 5 cm latex balloon catheter inserted into the colon via the anal canal. Constant pressure tonic distensions were performed in a graded manner, i.e., the pressure was increased to the desired level of 15, 30, or 60 mmHg and then maintained for a period of 10 minutes during which the number of abdominal contractions were recorded to measure the level of colonic sensation. Ten minute recovery periods were allowed following each distension.

For data set [3], the system named is stress-induced accelerated colonic transit. As to the kind of experiment: Water avoidance stress (WAS) model of increased colonic transit, fecal pellet output. Type of data set: in vivo, rat. The source says:
At the end of the 1-hour stress period, the fecal pellets were counted and recorded. WAS causes an acceleration of colonic transit, which can be quantified by counting the number of fecal pellets, produced during the stress procedure. Rats were placed for 1-hour into a stress chamber onto a raised platform 7.5 cm×7.5 cm×9 cm (L×W×H) in the center of a stress chamber filled with room temperature water 8 cm in depth. The stress chamber was constructed from a rectangular plastic tub (40.2×60.2×31.2 cm). […] Ondansetron was supplied from APIN Chemicals LTD. […] MCI-225 was provided by Mitsubishi Pharma Corp. All drugs were dissolved in a vehicle of 100% propylene glycol (1,2-propanediol) by sonicating for a period of 10 minutes. Propylene glycol was obtained from Sigma Chemical Co. […] All drugs and the vehicle were administered as an i.p. injection in a volume of 0.2 mL.

For data set [4], the system named is retching and vomiting induced by cisplatin. As to the kind of experiment: Cisplatin-induced emesis in the ferret. The format is in vivo, ferret (Mustela putorius furo). Here is the method: Following administration of the cisplatin and either MCI-225, ondansetron or vehicle alone, the occurrence of retching and vomiting was monitored for a period of 6 hours. […] Vomiting was defined as the forceful oral expulsion of upper gastrointestinal contents. The latency of the retching or vomiting response and the number of episodes were recorded for each animal and summarized for each experimental group (Wright et al., Infect. […] Following one hour of acclimation to the observation cage, ferrets received an intraperitoneal (i.p.) injection of cisplatin (5 mg/kg in 5 mL) followed in about 2 minutes by i.p. injection of a single dose of MCI-225 or ondansetron (Rudd and Naylor, Eur. J. Pharmacol., 322: 79-82 (1997)). […] Each animal received a single-dose drug treatment. In addition, three animals received an initial dose (30 mg/kg i.p.) and a second MCI-225 injection (30 mg/kg i.p.) 180 minutes following the initial dose. […] All groups were randomized.

Turning to `CNCCC(Oc1ccccc1OC)c1ccccc1` (stereo not drawn) [Nisoxetine], the “Small intestinal transit, Mean (% of total length)” value in data set [1] (3 mg/kg i.p.) is listed as 40.3%; in data set [1] (10 mg/kg i.p.), 38.6%; in data set [1] (30 mg/kg i.p.) it was 4.7%. In addition, in data set [1] (30 mg/kg i.p.), the “Charcoal meal completely retained in the stomach” value was 4 out of 5. Moreover, the figures for the “Effect on small intestinal transit” value in data set [1] (30 mg/kg i.p.) and in data set [1] (3 or 10 mg/kg i.p.) were “almost completely inhibited the transit” and “tendency to decrease”, respectively. Moreover, the “Behavior in the home cage during the experiments” value in data set [2] (30 mg/kg i.p.) is reported as “increased exploratory behavior”. The “Visceromotor response to colorectal distension” value in data set [2] (3, 10 or 30 mg/kg i.p.) is recorded as “no significant effect”. The “WAS-induced fecal pellet output during 1 hour” value in data set [3] (3, 10 or 30 mg/kg i.p.) is reported as “reduced by all doses”. Further, the “Fecal pellets produced during WAS compared to the vehicle treated group” value in data set [3] (10 and 30 mg/kg i.p.) is given as “significantly fewer”.
As to `Cc1nccn1CC1CCc2c(c3ccccc3n2C)C1=O` (stereo not drawn) [Ondansetron, reference compound], in data set [1] (1 mg/kg i.p.), the “Small intestinal transit, Mean (% of total length)” value was 27.6%. In data set [1] (5 mg/kg i.p.), the “Small intestinal transit, Mean (% of total length)” value is listed as 32.1%. The “Small intestinal transit, Mean (% of total length)” value in data set [1] (10 mg/kg i.p.) was found to be 18.4%. In data set [1] (1, 5 or 10 mg/kg i.p.), the “Effect on small intestinal transit” value is “significant reduction”. Further, in data set [4] (5 mg/kg and 10 mg/kg i.p.), the “Number of emetic events induced by cisplatin” value is “dose-dependently reduced”. In data set [4] (5 mg/kg i.p.), the “Latency” value was determined as 288 ± 4 min, the “Retches (360 min)” value is 11.2 ± 7.0, the “Total Events” value was found to be 11.5 ± 7.2 and the “Vomits (360 min)” value worked out at 0.3 ± 0.2. For the same compound, in data set [4] (10 mg/kg i.p.), the “Latency” value came out at 313 ± 32 min, the “Retches (360 min)” value is recorded as 2.4 ± 1.6, the “Total Events” value was determined as 2.4 ± 1.6 and the “Vomits (360 min)” value was determined as 0.0 ± 0.0. Besides, the “Responses to moderate (30 mmHg) and high (60 mmHg) intraluminal pressure” value in data set [2] (10 mg/kg i.p.) is given as “did not abolish the responses”. Besides, the “Behavioral activity of the rats” value in data set [2] (1, 5 or 10 mg/kg i.p.) is on record as “No significant changes”. The “Number of abdominal contractions (visceromotor response)” value in data set [2] (1, 5 or 10 mg/kg i.p., 15, 30, 60 mmHg) was “dose-dependent decrease”. Moreover, the “Stress-induced fecal pellet output during 1 hour of WAS” value in data set [3] (1, 5 and 10 mg/kg i.p.) is “dose-dependent inhibition”.
